Results as given in patent publication US12528817B2, “Method of inhibiting kinase by mesylate salts of triazolopyrazine derivatives” (ABION Inc., priority 2022, dated 2026).
“And” between values parts separate entries of the source, which are not always exact repeats. Equal values may be shown once. “Also recorded” adds a separate entry of the source.

What was measured:
[1] = Long-term chemical stability study, API chemical purity by HPLC/LCMS; format: physicochemical
Experimental: Assay and purity assessment of the novel crystalline salts • Method name: S19061_01.MV • Sample: • Concentration: 0.3 mg/ml • Diluent: Acetonitrile/water (50/50)

[2] = Long-term stability study, water content by TGA/TGMS; format: physicochemical
Experimental: Mass loss due to solvent or water loss from the crystals was determined by TGA. […] The TGA/DSC 3+ was calibrated for temperature with samples of indium and aluminum. Samples (circa 2 mg) were weighed into 100 μL aluminum crucibles and sealed. The seals were pin-holed, and the crucibles heated in the TGA from 25 to 300° C. at a heating rate of 10° C./min. Dry N2 gas was used for purging.
The gases coming from the TGA samples were analyzed by a mass spectrometer Omnistar GSD 301 T2 (Pfeiffer Vacuum GmbH, Germany). The latter is a quadrupole mass spectrometer, which analyzes masses in the […] of 0-200 amu.

[3] = Long-term physical stability study, solid form by HT-XRPD; format: physicochemical
Experimental: (§1) HT-XRPD patterns were obtained using the Crystallics T2 high-throughput XRPD set-up. The plates were mounted on a Bruker General Area Detector Diffraction System (GADDS) equipped with a VANTEC-500 gas area detector corrected for intensity and geometric variations. The calibration of the measurement accuracy (peaks position) was performed using NIST SRM1976 standard (Corundum).
(§2) Data collection was carried out at room temperature using monochromatic Cu Kα radiation in the 2θ region between 1.5° and 41.5°, which is the most distinctive part of the XRPD pattern. The diffraction pattern of each well was collected in two 20 ranges (1.5°≤2θ≤21.5° for the first frame, and 19.5°≤2θ≤41.5° for the second) with an exposure time of 90 s for each frame. No background subtraction or curve smoothing was applied to the XRPD patterns. The carrier material used during HT-XRPD analysis was transparent to X-rays and contributed only slightly to the background.

[4] = Physical stability under accelerated aging conditions (AAC), HT-XRPD; conditions: for Form after AAC: 40° C./75% RH, 2 days (48 hours), HT-XRPD; for Physical stability after exposure to AAC: 40° C./75% RH for 2 days
Experimental: Upon completion of the aging time, the solids were separated from the liquid phases, dried under vacuum at 50° C. and analyzed by HT-XRPD. […] Subsequently, all the solids were exposed to accelerated aging conditions (AAC) at 40° C./75% RH for 48 hours and re-measured by HT-XRPD to test their physical stability.
as §1, §2

[5] = DVS analysis (hygroscopicity, moisture sorption); format: physicochemical; conditions: for Change in mass at 80% RH / Change of mass in the range 40→95% RH / Water vapor uptake at 95% RH / Change in mass in the range 0→40% RH: 25° C.; for Solid form after DVS analysis: XRPD at end of DVS; for Hygroscopicity classification (European Pharmacopeia): based on change in mass at 80% RH; for Change of mass in the range 40→95% RH / Water vapor uptake at 95% RH: first sorption half-cycle; for Change in mass in the range 0→40% RH: last sorption half-cycle; for Reversibility of water uptake: sorption-desorption-sorption 40-95-0-40% RH
Experimental: Differences in hygroscopicity (moisture uptake) of the various forms of a solid material provided a measure of their relative stability at increasing relative humidity. Moisture sorption isotherms of small samples were obtained using a DVS-1 system from Surface Measurement Systems (London, UK); this instrument is suitable for use with as little as a few milligrams of sample, with an accuracy of 0.1 μg. The relative humidity was varied during sorption-desorption-sorption (40-95-0-40% RH) at a constant temperature of 25° C., typically with a hold time of 60 minutes per step (10% relative humidity step). At the end of the DVS experiment the sample was measured by XRPD.
The hygroscopicity was classified according to the European Pharmacopoeia Hygroscopicity classification.

[6] = Thermal stability study in solution (LCMS); format: physicochemical; conditions: for Area %: approx. 0.3 mg/mL
Experimental: A thermal stability study was performed on ABN-401 to investigate the chemical stability of the starting material in solution when exposed to elevated temperatures. Solutions of ABN-401 were prepared in acetone, 1,2-dimethoxyethane, and acetonitrile with a concentration of approximately 0.3 mg/mL. Solutions were left at RT for 1 hour and successively, two aliquots of each solution were taken and heated at 50° C. and 80° C. for one hour. All these solutions were analyzed by LCMS. Additionally, the samples kept at RT were remeasured by LCMS after 24 hours to check the chemical degradation over time.
Starting material characterization and purity assessment of the novel crystalline forms of the free base: • Method name: S19061_03.M • Sample: • Concentration: 0.3 mg/ml • Diluent: Acetonitrile

Compound | API chemical purity after storage ([1]; 25° C./60% RH, 1 month) | API chemical purity after storage ([1]; 25° C./60% RH, 15 months) | API chemical purity after storage ([1]; 25° C./60% RH, 24 months) | API chemical purity after storage ([1]; 40° C./75% RH, 1 month) | API chemical purity after storage ([1]; 40° C./75% RH, 15 months) | API chemical purity after storage ([1]; 40° C./75% RH, 24 months) | Mass loss attributed to water (TGA) after storage ([2]; 25° C./60% RH, 1 month) | Mass loss attributed to water (TGA) after storage ([2]; 25° C./60% RH, 24 months) | Mass loss attributed to water (TGA) after storage ([2]; 40° C./75% RH, 1 month) | Mass loss attributed to water (TGA) after storage ([2]; 40° C./75% RH, 3 months) | Mass loss attributed to water (TGA) after storage ([2]; 40° C./75% RH, 15 months) | Mass loss attributed to water (TGA) after storage ([2]; 40° C./75% RH, 24 months) | Solid form (HT-XRPD) after storage ([3]; 25° C./60% RH, 1 month) | Solid form (HT-XRPD) after storage ([3]; 25° C./60% RH, 3 months) | Solid form (HT-XRPD) after storage ([3]; 25° C./60% RH, 15 months) | Solid form (HT-XRPD) after storage ([3]; 25° C./60% RH, 24 months) | Solid form (HT-XRPD) after storage ([3]; 40° C./75% RH, 1 month) | Solid form (HT-XRPD) after storage ([3]; 40° C./75% RH, 3 months) | Form after AAC [4] | Physical stability after exposure to AAC [4] | further results
CC1(C)[C@@H]2CC[C@@]1(CS(=O)(=O)O)C(=O)C2.CN1CCN(Cc2ccc(-c3cnc(N4CCOC(Cn5nnc6ncc(-c7cnn(C)c7)nc65)C4)nc3)cc2)CC1 (stereo in doubt) [Camp2] | 99.8 % (area %) | 99.5 % (area %) and 97.3 % (area %) and 100 % (area %) | 100 % (area %) | 99.8 % (area %) | 93.7 % (area %) and 88.6 % (area %) | 88.6 % (area %) | 1.6% | 1.9% | 1.8% | 7.1% | 6.9% | 6.7% | Camp2 | Camp2 | Camp2 | no solid form conversion; also recorded: Camp2 | Camp2 | solid form conversion of Camp2 to Camp4 | Camp2 |  | Solid form (HT-XRPD) after storage ([3]; 40° C./75% RH, 15 months): Camp4; Solid form (HT-XRPD) after storage ([3]; 40° C./75% RH, 24 months): a mixture of a camsylate salt and Form E of the free base; also recorded: Camp3+E; Change in mass at 80% RH [5]: 1.4%; Solid form after DVS analysis [5]: Camp4; Hygroscopicity classification (European Pharmacopeia) [5]: slightly hygroscopic; Change of mass in the range 40→95% RH [5]: 14.1%; Water vapor uptake at 95% RH [5]: 15.6%; Change in mass in the range 0→40% RH [5]: 6.6%; Reversibility of water uptake [5]: irreversible
CN1CCN(Cc2ccc(-c3cnc(N4CCOC(Cn5nnc6ncc(-c7cnn(C)c7)nc65)C4)nc3)cc2)CC1 (centres unmarked) [ABN-401] |  |  | 87.2 % (area %) |  |  | 90.7 % (area %) | 3.7% | 5.3% | 4.0% | 4.4% | 3.7% | 5.2% |  |  |  |  |  |  |  |  | Mass loss attributed to water (TGA) after storage ([2]; 25° C./60% RH, 3 months): 4.1%; Mass loss attributed to water (TGA) after storage ([2]; 25° C./60% RH, 15 months): 3.3%; Area % ([6]; 1,2-dimethoxyethane, 1 h/50° C.): 98.6%; Area % ([6]; 1,2-dimethoxyethane, 1 h/80° C.): 97.7%; Area % ([6]; 1,2-dimethoxyethane, 1 h/RT): 99.0%; Area % ([6]; 1,2-dimethoxyethane, 24 h/RT): 98.8%; Area % ([6]; ACN, 1 h/50° C.): 99.0%; Area % ([6]; ACN, 1 h/80° C.): 98.7%; Area % ([6]; ACN, 1 h/RT): 99.0%; Area % ([6]; ACN, 24 h/RT): 98.1%; Area % ([6]; Acetone, 1 h/50° C.): 99.0%; Area % ([6]; Acetone, 1 h/80° C.): 99.0%; Area % ([6]; Acetone, 1 h/RT): 98.8%; Area % ([6]; Acetone, 24 h/RT): 98.5%; Chemical degradation in solution ([6]; samples kept at 50° C. and 80° C. for one hour, acetone, 1,2-dimethoxyethane, acetonitrile): No significant chemical degradation
CC1(C)[C@@H]2CC[C@@]1(CS(=O)(=O)O)C(=O)C2.CN1CCN(Cc2ccc(-c3cnc(N4CCOC(Cn5nnc6ncc(-c7cnn(C)c7)nc65)C4)nc3)cc2)CC1 (centres unmarked) [Camp1] |  |  |  |  |  |  |  |  |  |  |  |  |  |  |  |  |  |  | Camp1 | physically stable | 
CN1CCN(Cc2ccc(-c3cnc(N4CCOC(Cn5nnc6ncc(-c7cnn(C)c7)nc65)C4)nc3)cc2)CC1.CS(=O)(=O)O (centres unmarked) [Mes1] |  |  |  |  |  |  |  |  |  |  |  |  |  |  |  |  |  |  | Mes1 | physically stable | 
CN1CCN(Cc2ccc(-c3cnc(N4CCOC(Cn5nnc6ncc(-c7cnn(C)c7)nc65)C4)nc3)cc2)CC1.CS(=O)(=O)O.CS(=O)(=O)O (centres unmarked) [Mes2] | 100 % (area %) and 99.7 % (area %) | 100 % (area %) | 99.6 % (area %) | 99.7 % (area %) and 97.2 % (area %) | 100 % (area %) | 100 % (area %) | 8.0% |  | 10.8% | 11.2% | 9.6% | ~12.0% | Mes2 | no significant differences in the powder patterns and Mes2 | additional diffraction peaks were detected at 15.1 and 16.5° 2θ; also recorded: Mes2+peaks | Mes6 | Mes2 | showed these additional peaks; also recorded: Mes2+peaks | Mes2 | physically stable | API chemical purity after storage ([1]; 25° C./60% RH, 3 months): 99.6 % (area %); API chemical purity after storage ([1]; 40° C./75% RH, 3 months): 99.5 % (area %); Mass loss attributed to water (TGA) after storage ([2]; 25° C./60% RH, 3 months): 7.7%; Mass loss attributed to water (TGA) after storage ([2]; 25° C./60% RH, 15 months): 6.5%; Solid form (HT-XRPD) after storage ([3]; 40° C./75% RH, 15 months): Mes4 and Mes4+peaks; Solid form (HT-XRPD) after storage ([3]; 40° C./75% RH, 24 months): Mes6; Change in mass at 80% RH [5]: approximately 12.2%; Solid form after DVS analysis [5]: No change in the solid form; Hygroscopicity classification (European Pharmacopeia) [5]: moderately hygroscopic; Change of mass in the range 40→95% RH [5]: 24.8%; Water vapor uptake at 95% RH [5]: 29.6%; Change in mass in the range 0→40% RH [5]: 4.6%; Reversibility of water uptake [5]: reversible
CN1CCN(Cc2ccc(-c3cnc(N4CCOC(Cn5nnc6ncc(-c7cnn(C)c7)nc65)C4)nc3)cc2)CC1.CS(=O)(=O)O.CS(=O)(=O)O.CS(=O)(=O)O (centres unmarked) [Mes3] |  |  |  |  |  |  |  |  |  |  |  |  |  |  |  |  |  |  | Mes3 (deliquescent) | became deliquescent | 
